Laboratory results taken from ChEMBL document CHEMBL1153484, “Design, synthesis and evaluation of N-[(3S)-pyrrolidin-3-yl]benzamides as selective noradrenaline reuptake inhibitors: CNS penetration in a more polar template” (Bioorg Med Chem Lett, 2009).

Tests used:
[1] = biological target: Cytochrome P450 2D6 (Homo sapiens, UniProt P10635); assay: Inhibition of CYP2D6; type: ADME
[2] = biological target: Sodium-dependent noradrenaline transporter (Homo sapiens, UniProt P23975); assay: Displacement of [3H]nisoxetine from human recombinant NET expressed in HEK293 cells by scintillation proximity assay; type: cell-based
Sequence of Sodium-dependent noradrenaline transporter (P23975 whole entry): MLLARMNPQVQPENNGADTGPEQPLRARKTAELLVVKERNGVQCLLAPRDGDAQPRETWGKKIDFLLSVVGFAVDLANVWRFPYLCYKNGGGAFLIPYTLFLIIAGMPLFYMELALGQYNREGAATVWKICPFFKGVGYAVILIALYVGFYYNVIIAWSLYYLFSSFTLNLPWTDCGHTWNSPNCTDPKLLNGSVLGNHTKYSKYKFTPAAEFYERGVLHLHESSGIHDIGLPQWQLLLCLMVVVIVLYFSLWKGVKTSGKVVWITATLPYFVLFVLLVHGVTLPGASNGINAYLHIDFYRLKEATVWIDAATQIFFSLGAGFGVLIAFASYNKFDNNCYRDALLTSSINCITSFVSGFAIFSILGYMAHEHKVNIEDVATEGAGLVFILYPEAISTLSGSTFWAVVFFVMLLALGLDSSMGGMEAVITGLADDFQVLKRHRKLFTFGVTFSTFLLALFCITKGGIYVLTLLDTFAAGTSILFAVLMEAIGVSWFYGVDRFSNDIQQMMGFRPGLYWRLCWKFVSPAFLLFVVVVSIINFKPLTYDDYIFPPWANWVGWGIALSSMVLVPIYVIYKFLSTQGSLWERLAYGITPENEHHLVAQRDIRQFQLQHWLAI

[3] = biological target: Voltage-gated inwardly rectifying potassium channel KCNH2 (Homo sapiens, UniProt Q12809); assay: Displacement of [3H]dofetilide from human ERG
Sequence of Voltage-gated inwardly rectifying potassium channel KCNH2 (Q12809 whole entry): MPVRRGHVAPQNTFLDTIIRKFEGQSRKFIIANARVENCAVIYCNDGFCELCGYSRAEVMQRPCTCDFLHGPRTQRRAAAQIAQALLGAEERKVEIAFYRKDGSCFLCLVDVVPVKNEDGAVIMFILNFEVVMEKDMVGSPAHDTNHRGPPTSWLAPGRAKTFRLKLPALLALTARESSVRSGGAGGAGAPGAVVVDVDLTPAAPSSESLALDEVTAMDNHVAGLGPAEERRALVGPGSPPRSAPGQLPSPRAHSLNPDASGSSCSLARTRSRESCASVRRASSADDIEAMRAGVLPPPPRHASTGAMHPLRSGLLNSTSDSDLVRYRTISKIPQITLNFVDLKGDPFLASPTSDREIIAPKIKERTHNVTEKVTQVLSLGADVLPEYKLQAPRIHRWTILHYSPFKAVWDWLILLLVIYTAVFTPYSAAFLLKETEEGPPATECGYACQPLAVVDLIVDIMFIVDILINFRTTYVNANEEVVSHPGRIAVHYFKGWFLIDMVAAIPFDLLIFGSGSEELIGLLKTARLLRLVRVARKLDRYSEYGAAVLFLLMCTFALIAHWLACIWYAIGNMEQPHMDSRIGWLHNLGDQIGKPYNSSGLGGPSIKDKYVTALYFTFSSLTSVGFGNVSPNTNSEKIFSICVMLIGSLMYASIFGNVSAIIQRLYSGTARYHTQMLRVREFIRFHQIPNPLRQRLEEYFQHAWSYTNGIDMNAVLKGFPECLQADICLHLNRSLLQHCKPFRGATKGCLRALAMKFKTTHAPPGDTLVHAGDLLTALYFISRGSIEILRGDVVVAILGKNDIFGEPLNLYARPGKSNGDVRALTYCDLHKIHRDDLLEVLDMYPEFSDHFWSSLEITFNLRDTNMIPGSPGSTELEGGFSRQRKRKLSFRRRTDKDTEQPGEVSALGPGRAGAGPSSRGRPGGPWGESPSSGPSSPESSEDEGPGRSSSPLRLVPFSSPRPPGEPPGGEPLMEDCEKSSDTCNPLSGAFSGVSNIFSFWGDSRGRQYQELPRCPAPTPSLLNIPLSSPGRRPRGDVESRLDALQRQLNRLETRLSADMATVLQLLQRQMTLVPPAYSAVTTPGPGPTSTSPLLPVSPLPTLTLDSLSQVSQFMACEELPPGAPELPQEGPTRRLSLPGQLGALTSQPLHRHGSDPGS

[4] = Intrinsic clearance in human liver microsomes; type: ADME, Microsome
[5] = biological target: Sodium-dependent serotonin transporter (Homo sapiens, UniProt P31645); assay: Displacement of [3H]citalopram from human recombinant SERT expressed in HEK293 cells by scintillation proximity assay; type: cell-based
Sequence of Sodium-dependent serotonin transporter (P31645 whole entry): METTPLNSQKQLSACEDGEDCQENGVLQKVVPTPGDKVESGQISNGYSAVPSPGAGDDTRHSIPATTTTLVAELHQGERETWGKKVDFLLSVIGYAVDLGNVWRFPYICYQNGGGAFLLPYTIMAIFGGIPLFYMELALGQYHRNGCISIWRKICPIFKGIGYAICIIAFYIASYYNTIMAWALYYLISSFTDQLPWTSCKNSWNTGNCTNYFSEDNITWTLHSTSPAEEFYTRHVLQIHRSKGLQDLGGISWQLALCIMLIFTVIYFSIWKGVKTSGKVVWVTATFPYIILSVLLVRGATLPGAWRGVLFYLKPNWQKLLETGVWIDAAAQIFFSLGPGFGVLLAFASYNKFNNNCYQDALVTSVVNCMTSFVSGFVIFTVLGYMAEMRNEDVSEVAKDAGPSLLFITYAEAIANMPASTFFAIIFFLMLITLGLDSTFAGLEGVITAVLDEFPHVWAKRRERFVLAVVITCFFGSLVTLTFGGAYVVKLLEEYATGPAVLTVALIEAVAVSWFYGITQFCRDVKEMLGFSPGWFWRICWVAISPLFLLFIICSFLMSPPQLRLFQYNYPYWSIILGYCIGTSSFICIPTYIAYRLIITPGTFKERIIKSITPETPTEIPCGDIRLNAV

[6] = biological target: Sodium-dependent dopamine transporter (Homo sapiens, UniProt Q01959); assay: Displacement of radioligand from human recombinant DAT expressed in HEK293 cells by scintillation proximity assay; type: cell-based
Sequence of Sodium-dependent dopamine transporter (Q01959 whole entry): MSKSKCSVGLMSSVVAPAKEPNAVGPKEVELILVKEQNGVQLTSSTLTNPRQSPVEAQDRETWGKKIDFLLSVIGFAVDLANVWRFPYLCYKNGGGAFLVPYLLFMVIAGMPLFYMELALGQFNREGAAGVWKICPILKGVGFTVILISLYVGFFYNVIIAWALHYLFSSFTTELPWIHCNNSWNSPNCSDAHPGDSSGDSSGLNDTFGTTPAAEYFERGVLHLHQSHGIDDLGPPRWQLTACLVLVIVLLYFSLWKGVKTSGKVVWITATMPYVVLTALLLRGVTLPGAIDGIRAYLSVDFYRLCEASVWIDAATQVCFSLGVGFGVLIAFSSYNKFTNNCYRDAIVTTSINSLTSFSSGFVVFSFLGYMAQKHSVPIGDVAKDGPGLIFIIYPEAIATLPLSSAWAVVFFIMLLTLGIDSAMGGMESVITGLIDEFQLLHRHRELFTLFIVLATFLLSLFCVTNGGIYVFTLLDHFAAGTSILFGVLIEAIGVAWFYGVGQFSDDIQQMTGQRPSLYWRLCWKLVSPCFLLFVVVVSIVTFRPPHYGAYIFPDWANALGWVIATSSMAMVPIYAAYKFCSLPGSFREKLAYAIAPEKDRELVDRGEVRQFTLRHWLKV

Sequence of Cytochrome P450 2D6 (P10635 whole entry): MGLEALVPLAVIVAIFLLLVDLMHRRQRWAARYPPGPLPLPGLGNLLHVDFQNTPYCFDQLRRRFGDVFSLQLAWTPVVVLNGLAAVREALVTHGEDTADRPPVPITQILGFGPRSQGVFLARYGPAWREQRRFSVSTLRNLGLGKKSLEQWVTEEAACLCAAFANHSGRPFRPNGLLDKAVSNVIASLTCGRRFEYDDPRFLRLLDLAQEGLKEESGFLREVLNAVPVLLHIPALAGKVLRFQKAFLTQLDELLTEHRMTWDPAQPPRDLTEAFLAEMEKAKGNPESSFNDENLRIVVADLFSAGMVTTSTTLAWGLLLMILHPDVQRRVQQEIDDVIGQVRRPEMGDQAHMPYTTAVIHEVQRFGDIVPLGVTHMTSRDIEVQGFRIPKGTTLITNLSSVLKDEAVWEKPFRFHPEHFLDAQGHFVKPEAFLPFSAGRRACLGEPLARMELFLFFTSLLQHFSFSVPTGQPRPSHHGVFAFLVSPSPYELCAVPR

| Structure (SMILES) | IC50 [1] | Ki [2] | microsomal CLint [4] | Ki [5] | Ki [6] | IC50 [3] |
| --- | --- | --- | --- | --- | --- | --- |
| O=C(c1ccccc1C(F)(F)F)N(c1ccccc1)[C@H]1CCNC1 | > 3000 nM | 28 nM | < 7 µL/min/mg | 113 nM | 3130 nM | > 20000 nM |
| CNCc1cnc(C)cc1Oc1ccccc1Oc1ccccc1 |  |  | < 7 µL/min/mg |  |  | 11200 nM |
| CC(C)C(=O)N(Cc1ccccc1-c1ccccc1)[C@H]1CCNC1 |  |  |  |  |  | 3020 nM |
| CSc1ccccc1C(=O)N(c1ccccc1)[C@H]1CCNC1 |  | 19 nM |  | 64 nM | 3440 nM | > 20000 nM |
| CSc1ccccc1C(=O)N(CC1CCC1)[C@@H]1CCNC1 |  | 572 nM |  | 1080 nM | 3470 nM |  |
| O=C(c1ccccc1C1CCCC1)N(CC1CCC1)[C@H]1CCNC1 |  | 18 nM | 60 µL/min/mg | 802 nM | 3720 nM |  |
| CC(C)c1ccccc1C(=O)N(C1CCC1)[C@H]1CCNC1 |  | 43 nM |  | 776 nM | > 10000 nM |  |
| CCN(C(=O)c1ccccc1Oc1ccccc1)[C@H]1CCNC1 | > 30000 nM | 9 nM | < 7 µL/min/mg | 1610 nM | 3570 nM | 5030 nM |
| CCCN(C(=O)c1ccccc1C(C)C)[C@H]1CCNC1 |  | 92 nM |  | 5210 nM | > 10000 nM |  |
| CC(C)c1ccccc1C(=O)N(CC1CC1)[C@H]1CCNC1 |  | 31 nM |  | 2870 nM | > 10000 nM | > 17600 nM |
| CCCN(C(=O)c1ccccc1SC)[C@H]1CCNC1 |  | 37 nM |  | 1090 nM | 3110 nM | > 20000 nM |
| CC(C)c1ccccc1C(=O)N(CC1CCC1)[C@H]1CCNC1 | 3170 nM | 10 nM | < 9 µL/min/mg | 857 nM | 2040 nM | > 18200 nM |
| CC(C)c1ccccc1C(=O)N(CC1CCC1)[C@@H]1CCNC1 |  | 825 nM |  | 1990 nM | > 3160 nM |  |
| CN(C(=O)c1ccccc1Oc1ccccc1)[C@H]1CCNC1 |  | 61 nM |  | 661 nM | > 3160 nM | 9210 nM |
| O=C(c1ccccc1C(F)(F)F)N(CC1CCC1)[C@@H]1CCNC1 |  | 1120 nM |  | 1650 nM | 3960 nM |  |
| CCOC(=O)N(Cc1ccccc1-c1ccccc1)[C@H]1CCNC1 |  |  | < 7 µL/min/mg |  |  |  |
| CC(C)c1ccccc1C(=O)N(C1CCCC1)[C@H]1CCNC1 |  | 32 nM |  | 663 nM | > 10000 nM |  |

Further lines, with some results ahead:

| IC50 [1] | Ki [2] | microsomal CLint [4] | Ki [5] | Ki [6] | Structure (SMILES) | IC50 [3] |
| --- | --- | --- | --- | --- | --- | --- |
|  | 8 nM | < 7 µL/min/mg | 179 nM | 3040 nM | CSc1ccccc1C(=O)N(CC1CCC1)[C@H]1CCNC1 | > 20000 nM |
|  | 19 nM |  | 39 nM | 1360 nM | O=C(c1ccccc1Cl)N(CC1CCC1)[C@H]1CCNC1 |  |
|  | 29 nM |  | 237 nM | 2680 nM | CCc1ccccc1C(=O)N(CC1CCC1)[C@H]1CCNC1 |  |
| > 30000 nM | 16 nM | < 7 µL/min/mg | 62 nM | > 10000 nM | CSc1ccccc1C(=O)N(C1CCC1)[C@H]1CCNC1 | > 20000 nM |
|  |  | < 7 µL/min/mg | 68 nM | 4650 nM | O=C(c1ccccc1Oc1ccccc1)N(c1ccccc1)[C@H]1CCNC1 |  |
|  | 24 nM | < 7 µL/min/mg | 109 nM | 2750 nM | O=C(c1ccccc1C(F)(F)F)N(CC1CCCC1)[C@H]1CCNC1 | > 13500 nM |
|  | 294 nM |  | 654 nM | > 10000 nM | CC(C)CN(C(=O)c1ccccc1-c1ccccc1)[C@H]1CCNC1 | 1440 nM |
|  |  |  | 16 nM | 2950 nM | CSc1ccccc1C(=O)N(C1CCCCC1)[C@H]1CCNC1 | 2270 nM |
|  | 60 nM | < 7 µL/min/mg | 210 nM | > 10000 nM | O=C(c1ccccc1C(F)(F)F)N(C1CCC1)[C@H]1CCNC1 | > 10000 nM |
|  | 9 nM |  | 36 nM | 4770 nM | CSc1ccccc1C(=O)N(C1CCCC1)[C@H]1CCNC1 | > 18700 nM |
|  | 72 nM |  | 118 nM | 2340 nM | Cc1ccccc1C(=O)N(CC1CCC1)[C@H]1CCNC1 | > 20000 nM |
|  | 8 nM | < 7 µL/min/mg | 160 nM | > 10000 nM | CC(C)CN(C(=O)c1ccccc1Oc1ccccc1)[C@H]1CCNC1 |  |
|  | 172 nM |  | 457 nM | > 10000 nM | CC(C)N(C(=O)c1ccccc1C(F)(F)F)[C@H]1CCNC1 | > 20000 nM |
|  | 22 nM | < 7 µL/min/mg | 348 nM | 2650 nM | CCOc1ccccc1C(=O)N(CC1CCC1)[C@H]1CCNC1 | > 16800 nM |
| 65 nM | 7 nM | < 7 µL/min/mg | 151 nM | > 10000 nM | O=C(c1ccccc1Oc1ccccc1)N(CC1CCC1)[C@H]1CCNC1 | 760 nM |
|  | 38 nM | < 8 µL/min/mg | 587 nM | 4100 nM | O=C(c1ccccc1Oc1ccccc1)N(CC1CCC1)[C@@H]1CCNC1 |  |
|  | 13 nM | < 7 µL/min/mg | 222 nM | > 10000 nM | O=C(c1ccccc1Oc1ccccc1)N(C1CCC1)[C@H]1CCNC1 |  |
| 480 nM | 6 nM | 8 µL/min/mg | 266 nM | 3670 nM | CCSc1ccccc1C(=O)N(CC1CCC1)[C@H]1CCNC1 | 7570 nM |
|  | 148 nM | < 7 µL/min/mg | 187 nM | > 10000 nM | O=C(C1CCC1)N(Cc1ccccc1C(F)(F)F)[C@H]1CCNC1 |  |
|  | 30 nM |  | 581 nM | > 10000 nM | O=C(c1ccccc1C(F)(F)F)N(CC1CC1)[C@H]1CCNC1 | > 20000 nM |
|  | 18 nM |  | 330 nM | 3470 nM | CC(C)c1ccccc1C(=O)N(CC1CCCC1)[C@H]1CCNC1 | 2350 nM |
